According to patent publication EP1149076B1, “O-THIOCARBAMOYL-AMINOALKANOL COMPOUNDS, THEIR PHARMACEUTICALLY ACCEPTABLE SALTS AND PROCESS FOR PREPARING THE SAME” (SK Corporation, priority 1999, dated 2000):

Tests used:
mice (CD-1 strain) [1] = assay: Forced Swimming Test; type: in vivo; conditions: duration of immobility, one hour prior to test, 15-minute test period
Protocol: The therapeutic use of the compounds claimed in the present invention as antidepressants has been proven by the "Forced Swimming Test", a well known pharmacological screening methods for depression and the results are shown in the following Table II.
The procedure described by Porsolt et al., (1997) was used. Test compound was administered p.o. and i.p. to mice (CD-1 strain), one hour prior to the animals being immersed in a 1500mL glass beaker (16.5cm deep, 13.0cm diameter) filled with water (20 ∼ 23°C) to about 5cm from the top. Mice were kept in the water for a period of 15 minutes and the duration of immobility observed within the 15-minute test period was recorded. A mouse was judged to be immobile if it floated motionlessly in the water making only those movements necessary to keep its head above the water.

mice (CD-1 strain) [2] = assay: Maximal ElectroShock (MES) test; type: in vivo; conditions: for ED50: Mus musculus

CN(C)C(=S)OC[C@H](N)Cc1ccc(Cl)c(Cl)c1 [[drawing] the 2nd table, row 12]
Inhibition (reduction,%) (mice (CD-1 strain) [1]; i.p. (30mg/kg)): 54.9%
Inhibition (reduction,%) (mice (CD-1 strain) [1]; p.o. (30mg/kg)): 50.8%

CNC(=S)OC[C@H](N)Cc1ccccc1
ED50 (mice (CD-1 strain) [2]; ip, 1h): 20.9 mg/kg
MES (po, 30mg/kg) (mice (CD-1 strain) [2]; po, 30mg/kg, 0.5h, mice protected / mice tested): 3/3 (0.5h)

NC(=S)OC[C@H](N)Cc1ccccc1 [[drawing] the 3rd table, row 2]
ED50 (mice (CD-1 strain) [2]; ip, 0.5h): 29 mg/kg
ED50 (mice (CD-1 strain) [2]; po, 0.5h): 189 mg/kg

NC(=S)OC[C@H](N)Cc1ccccc1 [[drawing] the 2nd table, row 2]
Inhibition (reduction,%) (mice (CD-1 strain) [1]; i.p. (30mg/kg)): 41.6%

CNC(=S)OCC(CN)c1ccccc1 (stereo not drawn)
Inhibition (reduction,%) (mice (CD-1 strain) [1]; i.p. (30mg/kg)): 30.5%
Inhibition (reduction,%) (mice (CD-1 strain) [1]; p.o. (30mg/kg)): 25.6%

CNC(=S)OCC(N)Cc1ccccc1F (racemic)
ED50 (mice (CD-1 strain) [2]; ip, 1h): 24.7 mg/kg

NC(=S)OCC(N)Cc1ccc(Cl)cc1 (racemic)
Inhibition (reduction,%) (mice (CD-1 strain) [1]; i.p. (30mg/kg)): 30.6%
Inhibition (reduction,%) (mice (CD-1 strain) [1]; p.o. (30mg/kg)): 38.1%

CNC(=S)OC[C@@H](N)Cc1ccccc1
ED50 (mice (CD-1 strain) [2]; ip, 0.5h): 41.8 mg/kg
ED50 (mice (CD-1 strain) [2]; po, 0.5h): 152 mg/kg

NC(=S)OC[C@@H](N)Cc1ccccc1
Inhibition (reduction,%) (mice (CD-1 strain) [1]; i.p. (30mg/kg)): 51.2%

CNC(=S)OCCC(N)c1ccccc1 (stereo not drawn)
Inhibition (reduction,%) (mice (CD-1 strain) [1]; i.p. (30mg/kg)): 44.2%
Inhibition (reduction,%) (mice (CD-1 strain) [1]; p.o. (30mg/kg)): 29.2%

CN(C)C(=S)OC[C@H](N)Cc1ccc(Cl)c(Cl)c1 [[drawing] the 3rd table, row 7]
MES (ip, 30mg/kg) (mice (CD-1 strain) [2]; ip, 30mg/kg, 4.0h, mice protected / mice tested): 1/3 (4.0h)
